What was measured:
HER2 = assay: IHC of NCI-N87 xenograft tumors, HER2; format: in vivo, mice; conditions: vs control group
Protocol: Xenograft mice were generated to evaluate the anticancer effects of the candidate compound. NCI-N87 and JIMT-1 cells (5×10^6 cells), dissolved in 100 μL of 1× phosphate-buffered saline (PBS), were subcutaneously injected into the right flanks of 5-week-old female athymic nude mice (Envigo, USA) or 4-week-old female NOD-SCID mice (Koatech, South Korea). When the tumors reached a volume of 90-100 mm^3, the mice were randomized into designated groups. For the NCI-N87 xenograft, intravenous administration was performed six times at 3-day intervals. For the JIMT-1 xenograft, intraperitoneal administration was performed eight times at 3-day intervals. […] Tumor size changes were monitored until the mean tumor size in the control group reached 2,000-2,500 mm^3. On day 28 for the NCI-N87 xenograft and day 46 for the JIMT-1 xenograft, the mice were sacrificed, and tumors were excised to determine relative tumor sizes. Tumor length (L) and width (W) were measured with calipers, and tumor volume was calculated using the formula: […]
For immunohistochemistry (IHC) analysis, tumors from the xenograft models were prepared as paraffin-embedded sections. […] The control group was counterstained with hematoxylin, and the IHC staining was evaluated under an optical microscope at 200× magnification.

NCI-N87 cells = assay: apoptosis analysis (Annexin V, FACS); format: cell-based; conditions: dose-dependent
Protocol: Specifically, 5×10^5 NCI-N87 cells were seeded in 60 mm dishes and cultured until they reached 70-80% confluence. The cells were treated with varying concentrations of the candidate compound and cultured for 8 hours. The cells were treated with trypsin and then washed with cold PBS (pH 7.4). For cell cycle analysis, the cells were fixed with 70% ethanol and cultured at 4 °C for 30 minutes, followed by staining with FxCycle™ PI/RNase staining solution (Invitrogen™, USA). Cell cycle analysis was performed using a fluorescence-activated cell sorting (FACS) device (BD Biosciences, USA).
Cells for apoptosis analysis were prepared using the same method as described for the cell cycle analysis. The cells were treated with trypsin, washed with 1×PBS, and resuspended in each sample using the FITC Annexin V Apoptosis Detection Kit I (BD Pharmingen™). Apoptosis was analyzed using a FACS device.

[1] = pharmacokinetic profiling; format: in vivo

half-life T1/2 (IV) ([1]; intravenous): 9.74 ± 2.76 h
bioavailability (Ft) ([1]; intravenous and oral routes): 25.1%
SMILES: CC(=O)N1N=C(c2cccc(O)c2)CC1c1ccc(Cl)cc1 (stereo not shown) [Compound 15, 1-[5-(4-Chlorophenyl)-3-(3-hydroxyphenyl)-4,5-dihydropyrazol-1-yl]-ethanone]
HER2 levels reduction (HER2): approximately 1.8 fold
apoptosis (NCI-N87 cells): significantly promoted apoptosis in a dose-dependent manner
